“Also recorded” adds a separate entry of the source.
Columns and labels:
[1] = system: CCI-SN rats; assay: Randall-Selitto test in CCI-SN rats; format: in vivo, rat; details: 10 mg/kg i.p., acute
Experimental: Rats are anaesthetized with sodium pentobarbital (50 mg/kg i.p.). Unilateral CCI-SN is performed under direct visual control using a Zeiss microscope (10-25×) essentially as described by Bennett and Xie (G. J. Bennett et al., Pain, 33 (1988) 87-107).
Pain is produced by applying increasing pressure (0-450 g/mm^2) with a punch (0.2 mm tip diameter) on the rat's hind paw. The measured value to be determined is the pressure at which either a hindpaw withdrawal response or a vocalisation reaction of the animal occurs.
Tapentadol (10 mg/kg i.p.) or its vehicle (0.9% NaCl i. p.) was injected in CCI-SN rats acutely 14 days after surgery. Pressure threshold values to trigger hindpaw withdrawal (A) or vocalization (B) were determined using the Randall-Selitto test at various times after acute i.p. administration (Time=0) of Tapentadol or saline.
The results are summarized and depicted in FIG. 1 (A and B). Each point is the mean±S.E.M. of 3-4 independent determinations. * P<0.05 compared to pressure threshold values in the same rats before surgery (C on abscissa); Dunnett's test.

[2] = system: BDNF-induced allodynia; assay: Mechanical allodynia induced by intrathecal administration of BDNF in healthy rats (von Frey filaments test); format: in vivo, rat
Experimental: In a first part of this study, BDNF (0.3 ng in 25 μl of saline per rat) or saline (25 μl) was injected intrathecally in adult male rats slightly anesthetized with isoflurane (according to Mestre et al. (1994), J. Pharmacol. Toxicol. Meth., 32, 197-200), and animals were subjected to von Frey filaments test applied to hindpaws at various times thereafter.
In a second part of this study, tapentadol (3 or 10 mg/kg i.p.) or saline was administered to rats on the 7th day (Time=0 on abscissa) after intrathecal injection of BDNF (Time=C) as described above. Pressure threshold values were determined using von Frey filaments test applied to hindpaws.
In a first part of this study (A), reboxetine (10 mg/kg i.p.; mesylate, Ascent Scientific, Bristol, UK), tapentadol (10 mg/kg i.p.) or saline (0.5 ml i.p./rat) was injected on the 7th day after intrathecal administration of BDNF (0.3 ng in 25 μl of saline per rat). Pressure threshold values were determined at various times thereafter using von Frey filaments test applied to hindpaws.

[3] = target: recombinantly produced μ-opioid receptor (Homo sapiens, UniProt P35372); details: cited from earlier work
Sequence of recombinantly produced μ-opioid receptor (P35372 whole entry): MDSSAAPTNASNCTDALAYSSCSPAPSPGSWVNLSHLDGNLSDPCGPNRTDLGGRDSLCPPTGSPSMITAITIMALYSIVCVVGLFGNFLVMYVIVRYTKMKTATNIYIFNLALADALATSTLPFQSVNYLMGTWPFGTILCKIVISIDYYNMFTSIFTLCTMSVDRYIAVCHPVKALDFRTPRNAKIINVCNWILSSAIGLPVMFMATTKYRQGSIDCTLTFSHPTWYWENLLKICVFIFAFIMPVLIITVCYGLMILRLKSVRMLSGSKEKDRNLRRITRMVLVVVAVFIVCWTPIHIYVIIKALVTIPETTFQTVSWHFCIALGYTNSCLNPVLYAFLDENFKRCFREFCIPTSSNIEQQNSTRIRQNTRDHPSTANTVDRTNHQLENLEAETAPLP

[4] = system: CCI-ION rats; format: in vivo, rat
Experimental: Rats are anaesthetized with sodium pentobarbital (50 mg/kg i.p.). Unilateral CCI-ION is performed under direct visual control using a Zeiss microscope (10-25×) essentially as described by Vos et al (Vos B P, Strassman A M, Maciewicz R J (1994), J. Neurosci. 14: 2708-2723). Briefly, the head is fixed in a Horsley-Clarke stereotaxic frame and a midline scalp incision is made, exposing skull and nasal bone. The edge of the orbit, formed by the maxillary, frontal, lacrimal, and zygomatic bones, is dissected free. The orbital contents are gently deflected to give access to the infraorbital nerve which is dissected free at its most rostral extent in the orbital cavity, just caudal to the infraorbital foramen. Only 5 mm of the nerve can be freed (Vos et al.), providing the space for placement of two chromic catgut (5-0) ligations tied loosely (with about 2 mm spacing) around it. […] Finally, scalp incision is closed using silk sutures (4-0). In sham-operated rats, the ION is exposed using the […] procedure, but is not ligated.
Mechanical sensitivity is determined with a graded series of eleven von Frey filaments (Bioseb, Bordeaux, France). The filaments produce a bending force of 0.07, 0.16, 0.40, 0.60, 1.00, 2.00, 4.00, 6.00, 8.00, 10.00 and 12.00 g, respectively. The stimuli are applied within the ION territory (vibrissae pad) three times at the nerve-injured side and then at the contralateral side for a total of 6 applications of each filament per rat, always beginning with the filament producing the lowest force. The von Frey filaments are applied at least 3 seconds after the rats returned to their initial resting state. For each session, the complete series of von Frey filaments is tested in increasing force order.
The latter responses represent the highest scores in the rank-ordered response scoring system initially described by Vos et al. The minimal force filament causing at least one among these responses (to at least 2 out of the 3 an each side) allows determination of the mechanical response threshold. The 12.00 g filament is the cut-off threshold (no tissue-injury occurs at this pressing force).
For studying the effects of acute treatment with tapentadol in CCI-ION rats, tapentadol (1 or 10 mg/kg i.p.) or its vehicle (0.9% NaCl i. p.) was injected acutely 14 days after surgery. Sham-operated rats were treated in parallel. Pressure threshold values to trigger nocifensive responses to von Frey filaments application onto the plantar surface of ipsilateral hindpaw were determined at various times after acute injection of tapentadol or saline. Cut-off was fixed at 12 g pressure.
For studying the effects of subchronic treatment with tapentadol in CCI-ION rats, starting on day 16 (Time=D) after surgery, they received i.p. injections of tapentadol (10 mg/kg, twice daily, at 10:00 AM and 6:00 PM) or saline (at the same day times as the drug) for four days. On the following day (day 20 after surgery), both tapentadol- and saline-pretreated CCI-SN rats were i.p. injected with Tapentadol (10 mg/kg; Time=0) and then subjected to von Frey filaments' test applied to ipsilateral hindpaw for determination of pressure threshold values at various times thereafter.
14 days after CCI-ION surgery, rats were injected with reboxetine (10 mg/kg i.p.) or its vehicle (0.9% NaCl) followed, 15 min later, by morphine (3 mg/kg s.c.) or its vehicle (0.9% NaCl) and subjected to von Frey filament tests for the following 4 hours. Sham-operated rats were treated in parallel.

[5] = system: mRNA encoding ATF3, IL-6, BDNF and iNOS; assay: Real-time qRT-PCR of mRNA levels in ganglia and central tissues of CCI-ION rats; format: in vivo, rat; details: subchronic 10 mg/kg i.p. twice daily; ipsilateral trigeminal ganglion and spinal nucleus of the trigeminal nerve; day 20

CC[C@@H](c1cccc(O)c1)[C@@H](C)CN(C)C [tapentadol, (−)-(1R,2R)-3-(3-dimethylamino-1-ethyl-2-methyl-propyl)-phenol]
duration of the increase in pressure threshold values (hindpaw withdrawal and vocalization) ([1]; 14 days after surgery): at least 60 min | pressure threshold values to trigger vocalization relative to untreated healthy rats ([1]; first 45 min after administration): +20% | pressure threshold values to cause hindpaw withdrawal compared to intact healthy rats before surgery ([1]; first hour after treatment): did not significantly differ from those determined in intact healthy rats | time at which the maximal increase in pressure threshold was reached ([2]; 10 mg/kg i.p.): 15 min | pressure threshold values compared to untreated healthy rats ([2]; 10 mg/kg i.p., 15-30 min after injection): return of pressure threshold values up to levels determined in untreated healthy rats | reversal of BDNF-induced allodynia, dose dependence ([2]; 3 or 10 mg/kg i.p., 7th day after intrathecal BDNF): reversed BDNF-induced allodynia in a dose-dependent manner | affinity to the μ-opioid receptor, times less than that of morphine [3]: 18 times | time for pressure threshold values to return to saline level after the maximum ([4]; 1 mg/kg i.p., acute): ≤ 45 min | time over which the increase in pressure threshold developed ([4]; 1 mg/kg i.p., acute): 45 min | increase in pressure threshold value compared to saline-treated CCI-ION rats ([4]; 1 mg/kg i.p., acute, two weeks after surgery): ≤ 6 fold | anti-allodynic effect after subchronic pretreatment (sensitization/desensitization) ([4]; 10 mg/kg i.p. twice daily for four days or saline, then 10 mg/kg i.p.): had the same characteristics (amplitude, duration); also recorded: neither in CCI-SN rats nor in those with CCI-ION, any sign of sensitization or desensitization | duration of statistically significant anti-allodynic effect ([4]; 10 mg/kg i.p., acute): more than two hours | pressure threshold values relative to those determined prior to injection ([4]; 10 mg/kg i.p., acute, 30-60 min after injection): 15-20 fold | ATF3, IL-6, BDNF and iNOS mRNA levels in CCI-ION rats [5]: no significant effects

Reference: patent US20190274974A1, “Treatment of Pain Associated with Trigeminal Neuralgia” (priority 2011, published 2019)
